Values joined by “and” are separate entries in the source; they are usually repeats but may differ in a detail not shown here. Identical values can stand only once. Toxic doses and inconclusive results are not listed.
System: L1210 leukemia ip in BDF1 mice, survival T/C
Experiment: NCI In Vivo Anticancer Drug Screen. Data for tumor model L1210 Leukemia (intraperitoneal) in B6D2F1 (BDF1) mice
Settings: endpoint: mean survival time, higher = longer survival
Method in brief: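 Survival endpoint. Drug-treated group vs vehicle group, expressed as T divided by C. Tumor passaged by transplantation.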

[1] = dose: 50.0 mg/kg/injection, schedule: Q04DX003 (ip), vehicle: Klucel (hydroxypropylcellulose) (HPC)
[2] = dose: 100.0 mg/kg/injection, schedule: Q04DX003 (ip), vehicle: Klucel (hydroxypropylcellulose) (HPC)
[3] = dose: 100.0 mg/kg/injection, schedule: Q04DX003 (ip), vehicle: saline
[4] = dose: 200.0 mg/kg/injection, schedule: Q01DX009 (ip), vehicle: Klucel (hydroxypropylcellulose) (HPC)
[5] = dose: 200.0 mg/kg/injection, schedule: Q04DX003 (ip), vehicle: Klucel (hydroxypropylcellulose) (HPC)
[6] = dose: 400.0 mg/kg/injection, schedule: Q01DX009 (ip), vehicle: saline
[7] = dose: 100.0 mg/kg/injection, schedule: Q01DX009 (ip), vehicle: Klucel (hydroxypropylcellulose) (HPC)
[8] = dose: 400.0 mg/kg/injection, schedule: Q01DX009 (ip), vehicle: Klucel (hydroxypropylcellulose) (HPC)
[9] = dose: 400.0 mg/kg/injection, schedule: Q04DX003 (ip), vehicle: Klucel (hydroxypropylcellulose) (HPC)
[10] = dose: 100.0 mg/kg/injection, schedule: Q01DX001 (ip), vehicle: saline
[11] = dose: 200.0 mg/kg/injection, schedule: Q01DX001 (ip), vehicle: saline
[12] = dose: 200.0 mg/kg/injection, schedule: Q04DX002 (ip), vehicle: Klucel (hydroxypropylcellulose) (HPC)
[13] = dose: 100.0 mg/kg/injection, schedule: Q04DX002 (ip), vehicle: Klucel (hydroxypropylcellulose) (HPC)
[14] = dose: 400.0 mg/kg/injection, schedule: Q04DX002 (ip), vehicle: Klucel (hydroxypropylcellulose) (HPC)

`CCSc1ncnc2c1ncn2CN1CCOCC1` was tested, and the T/C (dose: 15.0 mg/kg/injection, schedule: Q01DX009 (ip), vehicle: saline) was 116 % of control, the T/C (dose: 40.0 mg/kg/injection, schedule: Q01DX009 (ip), vehicle: Klucel (hydroxypropylcellulose) (HPC)) was 113 % of control and the T/C (dose: 45.0 mg/kg/injection, schedule: Q01DX009 (ip), vehicle: saline) was 103 % of control and 111 % of control. The T/C [1] was 100 % of control, the T/C (dose: 60.0 mg/kg/injection, schedule: Q01DX009 (ip), vehicle: Klucel (hydroxypropylcellulose) (HPC)) was 116 % of control and the T/C (dose: 65.0 mg/kg/injection, schedule: Q01DX009 (ip), vehicle: saline) was 103 % of control and 111 % of control. The T/C (dose: 66.0 mg/kg/injection, schedule: Q01DX009 (ip), vehicle: saline) was 116 % of control, the T/C (dose: 100.0 mg/kg/injection, schedule: Q01DX009 (ip), vehicle: saline) was 108 % of control and the T/C [2] was 105 % of control. For the same molecule, the T/C [3] was 115 % of control, the T/C (dose: 120.0 mg/kg/injection, schedule: Q01DX009 (ip), vehicle: saline) was 177 % of control and the T/C (dose: 150.0 mg/kg/injection, schedule: Q01DX009 (ip), vehicle: saline) was 164 % of control and 168 % of control. For the same molecule, the T/C (dose: 150.0 mg/kg/injection, schedule: Q04DX003 (ip), vehicle: saline) was 111 % of control, the T/C (dose: 175.0 mg/kg/injection, schedule: Q01DX009 (ip), vehicle: saline) was 151 % of control and the T/C [4] was 173 % of control. For the same molecule, the T/C [5] was 109 % of control, the T/C (dose: 220.0 mg/kg/injection, schedule: Q01DX009 (ip), vehicle: saline) was 160 % of control and the T/C (dose: 220.0 mg/kg/injection, schedule: Q04DX003 (ip), vehicle: saline) was 119 % of control. For the same molecule, the T/C (dose: 225.0 mg/kg/injection, schedule: Q01DX009 (ip), vehicle: saline) was 122 % of control, the T/C (dose: 265.0 mg/kg/injection, schedule: Q01DX009 (ip), vehicle: saline) was 95 % of control and the T/C (dose: 330.0 mg/kg/injection, schedule: Q01DX009 (ip), vehicle: saline) was 107 % of control. The T/C [6] was 88 % of control.
With `CC(C)(Cc1c[nH]c2ccccc12)NC(=O)c1ccccc1` the T/C [7] was 90 % of control, the T/C [2] was 100 % of control and the T/C [5] was 98 % of control. For the same molecule, the T/C [8] was 92 % of control and the T/C [9] was 98 % of control.
With `CC(=O)N1CCn2nccc21` the T/C (dose: 100.0 mg/kg/injection, schedule: Q01DX009 (ip), vehicle: water) was 103 % of control, the T/C (dose: 100.0 mg/kg/injection, schedule: Q04DX003 (ip), vehicle: water) was 97 % of control and the T/C (dose: 200.0 mg/kg/injection, schedule: Q01DX009 (ip), vehicle: water) was 112 % of control. For the same molecule, the T/C (dose: 200.0 mg/kg/injection, schedule: Q04DX003 (ip), vehicle: water) was 106 % of control, the T/C (dose: 240.0 mg/kg/injection, schedule: Q01DX009 (ip), vehicle: saline) was 109 % of control and the T/C (dose: 240.0 mg/kg/injection, schedule: Q01DX009 (ip), vehicle: water) was 110 % of control. For the same molecule, the T/C [6] was 122 % of control, the T/C (dose: 400.0 mg/kg/injection, schedule: Q04DX003 (ip), vehicle: water) was 106 % of control and the T/C (dose: 666.0 mg/kg/injection, schedule: Q01DX009 (ip), vehicle: saline) was 122 % of control. For the same molecule, the T/C (dose: 666.0 mg/kg/injection, schedule: Q01DX009 (ip), vehicle: water) was 90 % of control.
`FC(F)(F)c1cccc(NC(=S)N/N=C/c2ccccc2)c1` was tested, and the T/C (dose: 100.0 mg/kg/injection, schedule: Q01DX009 (ip), vehicle: saline with Tween-80) was 92 % of control, the T/C (dose: 200.0 mg/kg/injection, schedule: Q01DX009 (ip), vehicle: saline with Tween-80) was 97 % of control and the T/C (dose: 400.0 mg/kg/injection, schedule: Q01DX009 (ip), vehicle: saline with Tween-80) was 94 % of control.
In the case of `CC1=C2[C@H]3OC(=O)[C@@H](C)[C@@H]3CC[C@@]2(C)C=CC1=O`, the T/C [10] is reported as 101 % of control, the T/C [2] is reported as 97 % of control and the T/C [11] is reported as 101 % of control. The T/C [5] was 103 % of control.
With `C=CCCCCCCCCC(=O)N/N=C/c1ccc(NC(C)=O)cc1` the T/C (dose: 12.5 mg/kg/injection, schedule: Q01DX001 (ip), vehicle: other) was 90 % of control, the T/C (dose: 12.5 mg/kg/injection, schedule: Q01DX009 (ip), vehicle: other) was 95 % of control and 96 % of control and the T/C (dose: 12.5 mg/kg/injection, schedule: Q04DX003 (ip), vehicle: other) was 96 % of control. The T/C (dose: 25.0 mg/kg/injection, schedule: Q01DX001 (ip), vehicle: other) was 91 % of control, the T/C (dose: 25.0 mg/kg/injection, schedule: Q01DX009 (ip), vehicle: other) was 114 % of control and 92 % of control and the T/C (dose: 25.0 mg/kg/injection, schedule: Q04DX003 (ip), vehicle: other) was 102 % of control. For the same molecule, the T/C (dose: 50.0 mg/kg/injection, schedule: Q01DX009 (ip), vehicle: carboxymethylcellulose (CMC)) was 98 % of control and 100 % of control, the T/C (dose: 50.0 mg/kg/injection, schedule: Q04DX003 (ip), vehicle: other) was 93 % of control and the T/C (dose: 100.0 mg/kg/injection, schedule: Q01DX009 (ip), vehicle: carboxymethylcellulose (CMC)) was 96 % of control. For the same molecule, the T/C (dose: 100.0 mg/kg/injection, schedule: Q01DX009 (ip), vehicle: other) was 98 % of control, the T/C (dose: 100.0 mg/kg/injection, schedule: Q04DX002 (ip), vehicle: carboxymethylcellulose (CMC)) was 90 % of control and the T/C (dose: 100.0 mg/kg/injection, schedule: Q04DX003 (ip), vehicle: other) was 94 % of control. The T/C (dose: 200.0 mg/kg/injection, schedule: Q01DX009 (ip), vehicle: carboxymethylcellulose (CMC)) was 100 % of control and 92 % of control, the T/C (dose: 200.0 mg/kg/injection, schedule: Q01DX009 (ip), vehicle: other) was 89 % of control and the T/C [12] was 114 % of control. The T/C (dose: 200.0 mg/kg/injection, schedule: Q04DX002 (ip), vehicle: carboxymethylcellulose (CMC)) was 90 % of control, the T/C (dose: 200.0 mg/kg/injection, schedule: Q04DX003 (ip), vehicle: other) was 92 % of control and the T/C (dose: 400.0 mg/kg/injection, schedule: Q04DX002 (ip), vehicle: carboxymethylcellulose (CMC)) was 92 % of control. The T/C (dose: 400.0 mg/kg/injection, schedule: Q04DX003 (ip), vehicle: other) was 86 % of control.
With `C1CC2CCCC(C1)S2` the T/C (dose: 75.0 mg/kg/injection, schedule: Q01DX001 (ip), vehicle: saline) was 102 % of control, the T/C (dose: 150.0 mg/kg/injection, schedule: Q01DX001 (ip), vehicle: saline) was 100 % of control and the T/C (dose: 300.0 mg/kg/injection, schedule: Q01DX001 (ip), vehicle: saline) was 96 % of control.
In the case of `CC12CCCCC1(O)CC(=O)CC2` (stereo not given), the T/C [13] is reported as 101 % of control, the T/C [12] is reported as 99 % of control and the T/C [14] is reported as 108 % of control.
For `Oc1ccccc1C=Nc1ccc(I)cc1.Oc1ccccc1C=Nc1ccc(I)cc1.[Co]`, the T/C (dose: 100.0 mg/kg/injection, schedule: Q04DX003 (ip), vehicle: saline with Tween-80) was 96 % of control, the T/C (dose: 200.0 mg/kg/injection, schedule: Q04DX003 (ip), vehicle: saline with Tween-80) was 108 % of control and the T/C (dose: 400.0 mg/kg/injection, schedule: Q04DX003 (ip), vehicle: saline with Tween-80) was 102 % of control.
For `O=C(Nc1cccc(C(F)(F)F)c1)C(c1ccccc1)c1ccccc1`, the T/C [1] was 98 % of control, the T/C [7] was 100 % of control and the T/C [2] was 110 % of control. The T/C [4] was 100 % of control, the T/C [5] was 93 % of control and the T/C [9] was 101 % of control.
In the case of `CC[Si](Cl)(CC)CCCl`, the T/C [3] is reported as 98 % of control, the T/C (dose: 200.0 mg/kg/injection, schedule: Q04DX003 (ip), vehicle: saline) is reported as 97 % of control and the T/C (dose: 400.0 mg/kg/injection, schedule: Q04DX003 (ip), vehicle: saline) is reported as 117 % of control.
With `CC(=O)c1c(C)c(Cl)c(C)c(Cl)c1O` the T/C [7] was 101 % of control, the T/C [13] was 103 % of control and 107 % of control and the T/C [4] was 104 % of control. For the same molecule, the T/C [12] was 103 % of control and 114 % of control, the T/C [8] was 90 % of control and the T/C [14] was 95 % of control and 107 % of control.
For `O=C(O)c1cc([N+](=O)[O-])cs1`, the T/C [10] was 98 % of control and the T/C [11] was 104 % of control.
In the case of `O=C(O)c1c(Br)c(Br)c(Br)c(Br)c1C(=O)Nc1ccc(Br)cc1`, the T/C [7] is reported as 104 % of control and the T/C [4] is reported as 101 % of control.
`CC1(C)C(=NO)C(C)(C)C1=NO` was tested, and the T/C (dose: 12.5 mg/kg/injection, schedule: Q01DX009 (ip), vehicle: Klucel (hydroxypropylcellulose) (HPC)) was 105 % of control, the T/C (dose: 12.5 mg/kg/injection, schedule: Q04DX003 (ip), vehicle: Klucel (hydroxypropylcellulose) (HPC)) was 108 % of control and the T/C (dose: 25.0 mg/kg/injection, schedule: Q01DX009 (ip), vehicle: Klucel (hydroxypropylcellulose) (HPC)) was 106 % of control. The T/C [1] was 104 % of control.
